The record followed here is PubChem BioAssay AID204 (DTP/NCI, 2004).

This experiment deals with BDF1 mice, P288 methotrexate-resistant leukemia, survival T/C. Nature of the experiment: NCI In Vivo Anticancer Drug Screen. Data for tumor model P288 Lymphocytic Leukemia resistant to methotrexate; NSC 740 (intraperitoneal) in B6D2F1 (BDF1) mice. To be noted: endpoint: median survival time, higher = longer survival. The method, then:
The antitumor activity of compounds was measured in mice bearing transplantable tumors. Survival or tumor size were measured and the results are expressed as the measurement made in the treated group (T) divided by the measurement made in the vehicle treated control group (C). The tumor model used in this assay is P288 Lymphocytic Leukemia resistant to methotrexate; NSC 740 (intraperitoneal) in B6D2F1 (BDF1) mice

Setting [1] is: dose: 8.0 mg/kg/injection, schedule: Q01DX010 (ip), vehicle: saline.
[2] abbreviates: dose: 16.0 mg/kg/injection, schedule: Q01DX010 (ip), vehicle: saline.
The mark [3] stands for this setting: dose: 50.0 mg/kg/injection, schedule: Q01DX010 (ip), vehicle: saline.
Where [4] appears, read: dose: 2.5 mg/kg/injection, schedule: Q01DX010 (ip), vehicle: saline.
The mark [5] stands for this setting: dose: 5.0 mg/kg/injection, schedule: Q01DX010 (ip), vehicle: saline.
Setting [6] is: dose: 10.0 mg/kg/injection, schedule: Q01DX010 (ip), vehicle: saline.
[7] abbreviates: dose: 20.0 mg/kg/injection, schedule: Q01DX010 (ip), vehicle: saline.
The mark [8] stands for this setting: dose: 40.0 mg/kg/injection, schedule: Q01DX010 (ip), vehicle: saline.
Setting [9] is: dose: 25.0 mg/kg/injection, schedule: Q01DX010 (ip), vehicle: saline.
Setting [10] is: dose: 100.0 mg/kg/injection, schedule: Q01DX010 (ip), vehicle: saline.
[11] abbreviates: dose: 200.0 mg/kg/injection, schedule: Q01DX010 (ip), vehicle: saline.
[12] abbreviates: dose: 12.0 mg/kg/injection, schedule: Q01DX010 (ip), vehicle: saline.
Where [13] appears, read: dose: 25.0 mg/kg/injection, schedule: Q01DX010 (sc), vehicle: steriod suspending solution.
The mark [14] stands for this setting: dose: 50.0 mg/kg/injection, schedule: Q01DX010 (sc), vehicle: steriod suspending solution.
[15] abbreviates: dose: 100.0 mg/kg/injection, schedule: Q01DX010 (sc), vehicle: steriod suspending solution.
Setting [16] is: dose: 0.25 mg/kg/injection, schedule: Q01DX010 (ip), vehicle: saline.
Where [17] appears, read: dose: 125.0 mg/kg/injection, schedule: Q01DX010 (ip), vehicle: saline.

“And” between values parts separate entries of the source, which are not always exact repeats. Equal values may be shown once. Toxic doses and inconclusive results are not listed. Starred links: 1 amine or outer side, 2 acyl side, 3 side chain; linkers in the order of their positions; H or OH if unused. Positions of bridges follow the written chain, without caps; N, C: chain ends. Non-standard residues stand in square brackets, D forms with d. Residues, ends and D or L forms follow the SMILES beside them. Chains are numbered I, II in the order given. Actinocin(9to1) = Cc1c2oc3c(C)ccc(C(=O)[*:1])c3nc-2c(C(=O)[*:2])c(N)c1=O; aThr = C[C@H](O)[C@H](N)C(=O)O; NMeV = CN[C@H](C(=O)O)C(C)C; Sar = CNCC(=O)O

As to `CN(C)c1ccc(Nc2c3ccccc3nc3ccccc23)cc1`, the T/C by setting is: (dose: 36.0 mg/kg/injection, schedule: Q01DX010 (ip), vehicle: saline) 95 % of control and 115 % of control; (dose: 54.0 mg/kg/injection, schedule: Q01DX010 (ip), vehicle: saline) 115 % of control and 116 % of control; (dose: 120.0 mg/kg/injection, schedule: Q01DX010 (ip), vehicle: saline) 120 % of control.
Regarding `O=C(Nc1ccc(C2=NCCN2)cc1)c1cccc(C(=O)Nc2ccc(C3=NCCN3)cc2)c1`, the T/C is 155 % of control and 166 % of control under setting [1]; 185 % of control and 194 % of control under setting [2]; 200 % of control and 238 % of control (dose: 32.0 mg/kg/injection, schedule: Q01DX010 (ip), vehicle: saline); 250 % of control and 255 % of control (dose: 64.0 mg/kg/injection, schedule: Q01DX010 (ip), vehicle: saline).
In the case of `COS(C)(=O)=O`, the T/C under setting [3] is 90 % of control.
Turning to `N#[N+]c1cnc([O-])[nH]c1=O`, the T/C runs as follows: (dose: 1.25 mg/kg/injection, schedule: Q01DX010 (ip), vehicle: saline) 100 % of control; under setting [4], 116 % of control and 118 % of control.
As to `CN(C)c1ccc(/C=C/c2ccnc3ccccc23)cc1`, the T/C runs as follows: under setting [5], 104 % of control; under setting [6], 90 % of control and 100 % of control; under setting [7], 90 % of control and 100 % of control; under setting [8], 90 % of control and 91 % of control.
Regarding `O=C(Nc1ccc(NC2=NCCN2)cc1)c1ccc(C(=O)Nc2ccc(NC3=NCCN3)cc2)cc1`, the T/C is, setting by setting: (dose: 2.0 mg/kg/injection, schedule: Q01DX010 (ip), vehicle: saline) 150 % of control; (dose: 4.0 mg/kg/injection, schedule: Q01DX010 (ip), vehicle: saline) 240 % of control and 250 % of control; under setting [1], 250 % of control and 285 % of control; under setting [2], 115 % of control.
Take `CCOC(=O)c1[nH]c2ccccc2c1CN(CCCl)CCCl`: the T/C runs as follows: under setting [6], 96 % of control; under setting [7], 111 % of control.
On to `CN(N=O)C(=O)NC(C=O)C(O)C(O)C(O)CO` (configuration not stated), for which the T/C was 100 % of control (dose: 12.5 mg/kg/injection, schedule: Q01DX010 (ip), vehicle: saline); 115 % of control under setting [9]; 105 % of control under setting [10].
Consider `CN(C)/N=N/c1nc[nH]c1C(N)=O`, for which the T/C was 100 % of control under setting [9]; 90 % of control under setting [3]; 105 % of control and 109 % of control under setting [10]; 90 % of control and 100 % of control under setting [11].
In the case of `N=C(N)c1ccc(Nc2ccc(C(=N)N)cc2)cc1`, the T/C under setting [12] was 90 % of control.
As to `O=C(Nc1ccc(C2=NCCN2)cc1)c1ccc(C(=O)Nc2ccc(C3=NCCN3)cc2)c([N+](=O)[O-])c1`, the T/C by setting is: (dose: 6.0 mg/kg/injection, schedule: Q01DX010 (ip), vehicle: saline) 150 % of control; under setting [1], 160 % of control and 172 % of control; under setting [12], 238 % of control and 285 % of control; (dose: 18.0 mg/kg/injection, schedule: Q01DX010 (ip), vehicle: saline) 161 % of control and 165 % of control.
Take `CC/C(=C(/CC)c1ccc(O)cc1)c1ccc(O)cc1`: the T/C by setting is: (dose: 12.5 mg/kg/injection, schedule: Q01DX010 (sc), vehicle: steriod suspending solution) 100 % of control and 110 % of control; under setting [13], 105 % of control; under setting [14], 100 % of control and 105 % of control; under setting [15], 90 % of control and 100 % of control.
With `O=c1cnn(C2OC(CO)C(O)C2O)c(=O)[nH]1` (configuration not stated), the T/C is 100 % of control under setting [11]; 100 % of control (dose: 400.0 mg/kg/injection, schedule: Q01DX010 (ip), vehicle: saline); 91 % of control (dose: 800.0 mg/kg/injection, schedule: Q01DX010 (ip), vehicle: saline).
For the compound `CSCS(=O)C[C@H](CO)NC(=O)/C=C/c1c(C)[nH]c(=O)[nH]c1=O` (some centres not stated), the T/C runs as follows: (dose: 62.5 micrograms/kg/injection, schedule: Q01DX010 (ip), vehicle: saline) 109 % of control; (dose: 125.0 micrograms/kg/injection, schedule: Q01DX010 (ip), vehicle: saline) 100 % of control; (dose: 250.0 micrograms/kg/injection, schedule: Q01DX010 (ip), vehicle: saline) 100 % of control; (dose: 500.0 micrograms/kg/injection, schedule: Q01DX010 (ip), vehicle: saline) 90 % of control.
Consider `CC[C@]1(O)C[C@H]2CN(CCc3c([nH]c4ccccc34)[C@@](C(=O)OC)(c3cc4c(cc3OC)N(C=O)[C@H]3[C@@](O)(C(=O)OC)[C@H](OC(C)=O)[C@]5(CC)C=CCN6CC[C@]43[C@@H]65)C2)C1`, for which the T/C is, setting by setting: (dose: 0.03 mg/kg/injection, schedule: Q01DX010 (ip), vehicle: saline) 121 % of control and 123 % of control; (dose: 0.06 mg/kg/injection, schedule: Q01DX010 (ip), vehicle: saline) 157 % of control; (dose: 0.12 mg/kg/injection, schedule: Q01DX010 (ip), vehicle: saline) 161 % of control and 162 % of control; under setting [16], 90 % of control.
As for `C[C@]12C=CC(=O)C=C1CC[C@@H]1[C@@H]2[C@@H](O)C[C@@]2(C)[C@H]1CC[C@]2(O)C(=O)CO`, the T/C reads like this: under setting [13], 118 % of control; under setting [14], 109 % of control; under setting [15], 100 % of control; (dose: 200.0 mg/kg/injection, schedule: Q01DX010 (sc), vehicle: steriod suspending solution) 100 % of control.
Consider `C[C@@H]1C[C@@H]([C@H](O)CC2CC(=O)NC(=O)C2)C(=O)[C@@H](C)C1`, for which the T/C is, setting by setting: under setting [5], 93 % of control and 94 % of control; under setting [6], 88 % of control and 100 % of control; under setting [7], 100 % of control; under setting [8], 111 % of control.
For the compound `CCOC(N)=O`, the T/C under setting [17] was 100 % of control; the T/C (dose: 250.0 mg/kg/injection, schedule: Q01DX010 (ip), vehicle: saline) is 100 % of control; the T/C (dose: 500.0 mg/kg/injection, schedule: Q01DX010 (ip), vehicle: saline) is 100 % of control; the T/C (dose: 1000.0 mg/kg/injection, schedule: Q01DX010 (ip), vehicle: saline) is 87 % of control and 88 % of control.
`Cn1cnc([N+](=O)[O-])c1Sc1nc(N)nc2nc[nH]c12`: the T/C is 109 % of control under setting [4], 90 % of control under setting [5], 109 % of control under setting [6] and 109 % of control under setting [7].
Regarding `C1CN1c1nc(N2CC2)nc(N2CC2)n1`, the T/C (dose: 0.13 mg/kg/injection, schedule: Q01DX010 (ip), vehicle: saline) is 90 % of control and 91 % of control; the T/C under setting [16] is 108 % of control and 110 % of control; the T/C (dose: 1.0 mg/kg/injection, schedule: Q01DX010 (ip), vehicle: saline) is 90 % of control.
`Cc1c2oc3c(C)ccc(C(=O)N[C@@H]4C(=O)N[C@H](C(C)C)C(=O)N5CCC[C@H]5C(=O)N(C)CC(=O)N(C)[C@@H](C(C)C)C(=O)O[C@H]4C)c3nc-2c(C(=O)N[C@@H]2C(=O)N[C@H](C(C)C)C(=O)N3CCC[C@H]3C(=O)N(C)CC(=O)N(C)[C@@H](C(C)C)C(=O)O[C@H]2C)c(N)c1=O` (I: [aThr][dV]P[Sar][NMeV] / II: [aThr][dV]P[Sar][NMeV]; ester I:1-I:C, II:1-II:C; linker I:N-II:N via Actinocin(9to1)): the T/C (dose: 25.0 micrograms/kg/injection, schedule: Q01DX010 (ip), vehicle: other) is 160 % of control and the T/C (dose: 50.0 micrograms/kg/injection, schedule: Q01DX010 (ip), vehicle: other) was 190 % of control.
Turning to `CCCSc1ncnc2nc[nH]c12`, the T/C is 104 % of control (dose: 15.6 mg/kg/injection, schedule: Q01DX010 (ip), vehicle: saline); 90 % of control and 100 % of control (dose: 31.3 mg/kg/injection, schedule: Q01DX010 (ip), vehicle: saline); 90 % of control and 104 % of control (dose: 62.5 mg/kg/injection, schedule: Q01DX010 (ip), vehicle: saline); 90 % of control under setting [17].
